PMC8724943 (Translational Oncology, 2021)

Target: p21 activated kinase 4 (PAK4) (Homo sapiens, UniProt O96013)
Experiment: in vitro radiometric kinase assay
Assay type: biochemical

Sequence of p21 activated kinase 4 (PAK4) (O96013 whole entry): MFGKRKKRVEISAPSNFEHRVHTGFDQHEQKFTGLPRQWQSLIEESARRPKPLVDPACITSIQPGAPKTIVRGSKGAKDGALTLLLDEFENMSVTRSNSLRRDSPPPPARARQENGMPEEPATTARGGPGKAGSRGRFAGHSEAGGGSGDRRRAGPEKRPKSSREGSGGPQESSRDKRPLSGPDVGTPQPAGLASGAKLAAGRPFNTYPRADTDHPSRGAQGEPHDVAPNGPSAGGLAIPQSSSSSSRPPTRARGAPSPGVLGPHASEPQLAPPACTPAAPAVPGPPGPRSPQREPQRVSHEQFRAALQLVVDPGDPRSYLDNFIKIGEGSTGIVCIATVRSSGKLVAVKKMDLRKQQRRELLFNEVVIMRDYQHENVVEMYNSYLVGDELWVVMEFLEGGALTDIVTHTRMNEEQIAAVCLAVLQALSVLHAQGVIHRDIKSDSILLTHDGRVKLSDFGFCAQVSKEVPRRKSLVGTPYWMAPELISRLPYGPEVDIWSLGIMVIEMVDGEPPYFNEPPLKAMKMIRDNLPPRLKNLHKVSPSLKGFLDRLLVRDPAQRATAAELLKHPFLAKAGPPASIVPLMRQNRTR

Q: PAKib was tested. Which IC50 did it give?
A: Its IC50 is ~0.5 µM.
